Key:
[1] = Hydrodynamic size and polydispersity of lipidoid nanoparticles by DLS; type: physicochemical; details: blank LNPs
Method: (§1) All chemicals used for lipidoids synthesis were purchased from Sigma-Aldrich without further purification unless otherwise noted. (−30)GFP-Cre recombinase, S. pyogenes Cas9 (spCas9) and sgRNA were generated following the protocols reported in Wang at al., Proc. Natl. Acad. Sci. USA, 2016, 113, 2868-2873 (“Wang”). HeLa-DsRed and GFP-HEK cells were cultured in Dulbecco's modified eagle's medium (DMEM, Sigma-Aldrich) with 10% fetal bovine serum (FBS, Sigma-Aldrich) and 1% penicillin-streptomycin (Gibco). All ^1H NMR spectra were recorded on a Bruker AVIII 500 MHz NMR spectrometer operated in the Fourier transform mode. Hydrodynamic size and polydispersity index of nanoparticles were measured by Zeta-PALS particle size analyzer (Brookhaven Instruments). The apparent pKa values of lipidoids were determined using 2-(p-toluidinynaphthalene-6-sulphonic acid) (TNS, Sigma-Aldrich) as fluorescent probe following the protocols reported in Heyes et al., J. Controlled Release, 2005, 107, 276-287. TEM measurements were performed on a FEI Technai Transmission Electron Microscope. Fluorescence images of tissue slices were obtained using BZ-X Analyzer fluorescence microscope.
Lipidoids nanoparticles (LNPs) were fabricated in sodium acetate buffer (25 mM, pH 5.2) by following the simple ultrasonication and vortex procedures described above. Hydrodynamic sizes and polydispersity index (PDI) of LNPs were measured by dynamic laser scattering (DLS) analysis.
Lipidoids were fabricated into nanoparticles for all delivery applications.
In this context, two strategies were tested, i.e., synthesizing new OCholB-tailed lipidoids with single tail rather than full substitution, and adding helper lipids (phospholipids) into fully substituted OCholB LNPs. […] The delivery efficacies of the single-tailed LNPs were first tested using GFP mRNA against HeLa cells (lipidoid/mRNA=10/1; [mRNA]=0.86 μg mL^−1; 24 h of exposure). […] We then tried to add helper lipids into the original two-tailed OCholB lipidoid nanoparticles formulations. As a proof-of-concept, DOPE was mixed with OCholB lipidoids (lipidoid/DOPE=1/1, weight ratio) and nanoparticles were fabricated (noted as 75-OCholB-F, 76-OCholB-F, and 77-OCholB-F) and loaded with Cas9 mRNA and sgRNA (mRNA/sgRNA=1/1, weight ratio).

[2] = TEM size of lipidoid nanoparticles; type: physicochemical; details: TEM images of LNPs
Method: as §1
(§2) The morphologies of LNPs were further studied by the transmission electron microscopy (TEM). […] Subsequently, the stability of LNPs thus prepared was examined by DLS and fluorescence measurements.
The morphologies of OCholB fully substituted LNPs were then examined by transmission electron microscopy (TEM). […] In contrast, the vesicular structures were not well-formed for 87-OCholB and 90-OCholB compared to their counterparts, and amorphous aggregates were observed instead.

HeLa-DsRed cells [3] = assay: Intracellular delivery of (−30)GFP-Cre/LNP (GFP-positive cells); type: cell-based; details: 25 nM (−30)GFP-Cre, lipidoid 3.3 mg/L; for green fluorescence emission (fluorescence microscopy): 6 h incubation; for GFP-positive cells: flow cytometry, 6 h
Method: (§3) The final (−30)GFP-Cre protein concentration is 25 nM, and lipidoid concentration is 3.3 mg/L. For the gene recombination functional study, HeLa-DsRed cells were treated with same conditions and the red fluorescence emission from DsRed was analyzed by flow cytometry 24 h after delivery.
A Cre recombinase protein fused to a negatively supercharged GFP variant ((−30)GFP-Cre) was used as a model cargo protein. The (−30)GFP-Cre protein was able to complex with cationic LNPs through electrostatic attraction and other types supramolecular interactions. The cellular uptake of LNPs could be determined by direct analysis of intracellular GFP fluorescent intensity as reported in Wang. HeLa-DsRed cells were used in this study, which expressed red fluorescent DsRed upon Cre-mediated recombination to facilitate the functional study of delivered proteins in the following study.
The (−30)GFP-Cre protein loaded LNPs (GFP-Cre/LNPs) were prepared at first by simply mixing precalculated amount of aqueous solution of LNPs and protein at ambient conditions. For the intracellular delivery, after incubation with GFP-Cre/LNPs nanoparticles for 6 h, the GFP-positive cells were observed using fluorescence microscopy, harvested and counted by flow cytometry. […] The intracellular (−30)GFP-Cre protein delivery efficiencies were further quantified by flow cytometry.

HeLa-DsRed cells [4] = assay: Cre-mediated gene recombination (DsRed expression) after (−30)GFP-Cre/LNP delivery; type: cell-based; details: 24 h; 25 nM (−30)GFP-Cre; lipidoid 3.3 mg/L
Method: as §3
The top 12 of LNPs identified through intracellular delivery screening experiments were further tested for gene recombination using HeLa-DsRed model cells. The expression of DsRed from Cre protein mediated gene recombination was analyzed after 24 h of co-incubation with free (−30)GFP-Cre protein and protein loaded LNPs. […] Most of the test LNPs, on the other hand, efficiently delivered (−30)GFP-Cre protein and induced gene recombination, with 14-46% of the cells positive for DsRed.

Ai14 mice = assay: In vivo (−30)GFP-Cre delivery with formulated O17 LNPs, intravenous, tdTomato expression; parameters: species or system mouse; details: day 0 and day 5, 100 μg protein each, organs at day 20
Method: Formulated LNPs (lipidoid/Cholesterol/DOPE/DSPE-PEG2k=16/4/1/4, weight ratio) were prepared for protein loading and mice injection. Ai14 mice were housed in a temperature and humidity controlled facility with a 12 h light/dark cycle. Two mice in each group were injected with (−30)GFP-Cre/LNPs formulations on day 0 and 5, with 100 μg protein for each injection. Organs including heart, liver, spleen, lung and kidney from all groups were collected 20 days after injections. The tissues were fixed overnight in 4% paraformaldehyde (PFA) before being sectioning into 10 μm slices. The slices were collected and stained with DAPI for fluorescence imaging.
Upon Cre mediated gene recombination, the STOP cassette was removed, resulting in tdTomato expression. Considering the different performances of cargo loaded LNPs in vitro and in vivo, three LNPs with same amine heads and different tails (76-O17O, 76-O17S and 76-O17Se) were tested in this study. Formulated LNPs (lipidoid/cholesterol/DOPE/DSPE-PEG2k=16/4/1/4, weight ratio) were prepared. Mice were injected (intravenous injection) with (−30)GFP-Cre loaded the formulated LNPs (GFP-Cre/76-O17O, GFP-Cre/76-O17S, and GFP-Cre/76-O17Se) at day 0 and day 5 (100 μg of protein for each injection). […] Fluorescence images with lower magnification and larger field of view were obtained. […]

[5] = Storage stability of LNPs (time-dependent DLS, DiO/DiI FRET); type: physicochemical; details: DiO and DiI loaded LNPs, five days of storage
Method: as §2
The cell (HeLa and HeLa-DsRed cell lines) internalization studies were conducted using small molecular hydrophobic (nile red) and hydrophilic (calcein) fluorescent dyes and macromolecular fluorescent recombinant protein ((−30)GFP-Cre) loaded OCholB LNPs. The stabilities of cargo-loaded LNPs were examined at first using time-dependent DLS and fluorescence measurements.

GFP-HEK cells [6] = assay: Cas9:sgRNA RNP delivery, GFP gene knockout; type: cell-based; details: 48 h; 25 nM Cas9:sgRNA RNP; lipidoid 3.3 mg/L
Method: For CRISPR/Cas9 gene knockout study, GFP-HEK cells were seeded in 48-well plate with a density of 2×10^4 cell/well. After 24 h of incubation, Cas9:sgRNA/LNP nanoparticles were added to the cells and incubated for 4 h, followed by media changed. After 48 h of incubation, the green emission from GFP was analyzed by flow cytometry.
For the intracellular delivery, GFP-HEK cells were harvested after treating with Cas9:sgRNA/LNPs nanocomplexes for 48 h. GFP gene knockout efficacy was further evaluated by flow cytometry.

GFP-HEK cells [7] = test system: GFP-HEK cells
Method: Cell viability was measured by the standard MTT assay. HeLa-DsRed or GFP-HEK cells were seeded into 96-well plate with a density of 5×10^3 cell/well. (−30)GFP-Cre/LNP or Cas9:sgRNA/LNP nanoparticles were added after 24 h of incubation. The final concentration of protein is 25 nM and LNP is 3.3 mg/L. After incubating for 24 h or 48 h, the MTT reagent (5 mg/mL, in 30 μL PBS buffer) was added and the cells were incubated for another 4 h at 37° C. The cell culture media were then carefully removed and 200 μL of DMSO were added. The DMSO solution was transferred into another 96-well plate and the absorbance at 570 nm was recorded by microplate reader. All experiments were performed in quadruplicate.
In vitro cytotoxicity of Cas9:sgRNA/LNPs against GFP-HEK cells was also evaluated by the MTT assay.

HeLa cells [8] = assay: Internalization of Dox loaded nanoparticles (flow cytometry); type: cell-based; details: 8 h of exposure
Method: After 24 h of incubation at 37° C., 5% CO2, Dox, CPT or Oxa loaded nanoparticles were added to the cells and incubated for 8 h followed by media change. The cells were then incubated for another 40 h before cell viability analysis.
Doxorubicin hydrochloride (Dox) (water soluble), and camptothecin (CPT) and oxaliplatin (Oxa) (water insoluble) were encapsulated into LNPs (see experimental section) and tested against HeLa cells. […] Then the internalization of Dox loaded 75-OCholB LNP (Dox/75-OCholB) was studied after 8 h of exposure using flow cytometry.

HeLa cells [9] = assay: Internalization of calcein loaded nanoparticles; type: cell-based; details: 8 h of exposure
Method: The internalization kinetics and efficiencies of OCholB LNPs were then studied using NR loaded LNPs and HeLa cells. […] Next, all of the NR delivery efficiencies of eight OCholB LNPs were determined after 8 h of exposure. […] Representative fluorescent images of NR/LNPs (NR/75-OCholB, NR/76-OCholB and NR/77-OCholB) treated HeLa cells are shown in FIG. 12D, from which it is easily observed that NR was delivered into the cells and mainly distributed in cytoplasm, by OCholB LNPs. Next, the internalization of negatively charged hydrophilic fluorescent dye, calcein, was studied. […] Next, the use of OCholB LNPs for the intracellular delivery of macromolecular cargo was explored, using fluorescent recombinant (−30)GFP-Cre protein and HeLa-DsRed cells as the model system. […] Delivery efficiency was tested at a range of (−30)GFP-Cre protein concentrations (25, 50 and 100 nM), with a consistent lipid/protein ratio (i.e., delivery with the final lipid concentration of 1.7, 3.3, and 6.6 μg mL^−1 respectively). 33.2%, 43.8% and 74% of GFP positive (GFP^+) cells were recorded for (−30)GFP-Cre/Lpf2k treated cells with the concentration of (−30)GFP-Cre 25 nM, 50 nM and 100 nM, respectively. […]

## CCCCCCCCCCCCCCOCCOC(=O)CCN(CCC(=O)OCCOCCCCCCCCCCCCCC)CCN1CCCC1 [Lipidoid 76-O17O]
[1]
  averaged hydrodynamic diameter (<Dh>): 170.1 nm
  polydispersity index (PDI, μ2/I^2): 0.37
[2]
  size measured by TEM: 145 nm
HeLa-DsRed cells [3]
  green fluorescence emission (fluorescence microscopy): bright green fluorescence emission

## CCCCCCCCCCCCCCSCCOC(=O)CCN(CCC(=O)OCCSCCCCCCCCCCCCCC)CCN1CCCC1 [Lipidoid 76-O17S]
[1]
  averaged hydrodynamic diameter (<Dh>): 114.3 nm
  polydispersity index (PDI, μ2/I^2): 0.24
[2]
  size measured by TEM: 94 nm
HeLa-DsRed cells [3]
  green fluorescence emission (fluorescence microscopy): bright green fluorescence emission
HeLa-DsRed cells [4]
  cells positive for DsRed (protein transfection efficiency): 40.8%
Ai14 mice
  tdTomato signal in sections of lung: strong tdTomato signals

## CCCCCCCCCCCCCC[Se]CCOC(=O)CCN(CCC(=O)OCC[Se]CCCCCCCCCCCCCC)CCN1CCCC1 [Lipidoid 76-O17Se]
[1]
  averaged hydrodynamic diameter (<Dh>): 129.4 nm
  polydispersity index (PDI, μ2/I^2): 0.18
[2]
  size measured by TEM: 133 nm
[5]
  FRET ratio (I575/I575+I505) variations: negligible
HeLa-DsRed cells [3]
  green fluorescence emission (fluorescence microscopy): bright green fluorescence emission
HeLa-DsRed cells [4]
  cells positive for DsRed (protein transfection efficiency): 36.1%
Ai14 mice
  tdTomato signal in sections of lung: strong tdTomato signals
GFP-HEK cells [6]
  GFP knockout (GFP-negative cells): 50.2%
GFP-HEK cells [7]
  cell viability: 76.3%

## CCCCCCCCCCCCCC[Se]CCOC(=O)CCN(CCCN(C)C)CCC(=O)OCC[Se]CCCCCCCCCCCCCC [Lipidoid 80-O17Se]
HeLa-DsRed cells [3]
  GFP-positive cells: 39%
GFP-HEK cells [6]
  GFP knockout (GFP-negative cells): 57.7%
GFP-HEK cells [7]
  cell viability: 68.2%

## CCCCCCCCCCCCCC[Se]CCOC(=O)CCN(CCCN(CC)CC)CCC(=O)OCC[Se]CCCCCCCCCCCCCC [Lipidoid 81-O17Se]
GFP-HEK cells [6]
  GFP knockout (GFP-negative cells): 54.7%
GFP-HEK cells [7]
  cell viability: 97.7%

## CCCCCCCCCCCCCC[Se]CCOC(=O)CCN(CCCN(C)C)CCCN(CCC(=O)OCC[Se]CCCCCCCCCCCCCC)CCC(=O)OCC[Se]CCCCCCCCCCCCCC [Lipidoid 400-O17Se]
HeLa-DsRed cells [3]
  GFP-positive cells: 42%
GFP-HEK cells [6]
  GFP knockout (GFP-negative cells): 57.4%
GFP-HEK cells [7]
  cell viability: 66.7%

## COc1cccc2c1C(=O)c1c(O)c3c(c(O)c1C2=O)C[C@@](O)(C(=O)CO)C[C@@H]3O[C@H]1C[C@H](N)[C@H](O)[C@H](C)O1.Cl [free Dox, Doxorubicin hydrochloride]
HeLa cells [8]
  mean fluorescence intensity vs untreated control cells (internalization): could be readily internalized

## O=C(O)CN(CC(=O)O)Cc1cc2c(cc1O)Oc1cc(O)c(CN(CC(=O)O)CC(=O)O)cc1C21OC(=O)c2ccccc21 [free calcein, calcein, reference compound]
HeLa cells [9]
  mean fluorescent intensity vs free calcein-treated cells: cannot enter into the cells efficiently

Reference: patent publication US12133855B2, “Lipid-like nanocomplexes and uses thereof” (Trustees of Tufts College, priority 2018, dated 2024)
